Results as given in patent US20240327423A1, “A SERIES OF PYRROLE DERIVATIVES AND THEIR PREPARATION METHOD AND THERAPEUTIC USE” (SHENZHEN SUNGENING BIO-MEDICAL CO., LTD, priority 2020, published 2024).
≈ marks a conversion by molar mass, not a printed value. Where two headings read alike, the source gives them in different places.

What was measured:
[1] = test system: Aspergillus fumigatus (ATCC-204305); test: Measurement of minimum inhibitory concentration (MIC), ATCC 204305; type: cell-based; details: Aspergillus fumigatus ATCC 204305, 35° C., 48 hours
Procedure: New streaks are made with glycerol stock solution of the strains of Aspergillus [NT] MYA-4609/AF 293/CBS 101355) on Sabouraud's dextrose agar (SDA), incubate at 35° C. and a humidity of 40-70% for 72 hours. Other strains are processed as the same as AF293. RPMI1640: one packet of RPMI1640 powder is dissolved in 1 L purified water and mixed well, add 0.165M MOPS, adjust the pH to 7.0, sterilize by filtration with 0.22 um membrane, and store at 4° C. for no more than 3 months. Physiological saline: weigh 9 g of sodium chloride powder and dissolve in 1 L of purified water, and mixed well. […] Dissolve the test compound and stock solution of one control compound with DMSO and obtain solutions at a concentration of 12.8 mg/mL The maximum concentration of each compound is 0.8 mg/mL (e.g., 150 μL of dimethyl sulfoxide+10 uL of 12.8 mg/mL compound/control). […] Repeat the above steps up to column 11 to give 2× serial dilutions. 2 μL of the above 2× serial dilutions are injected into each hole of the corresponding test plate using a multichannel pipette. Drop 5 ml of saline on the Aspergillus fumigatus SDA plate. The spores were carefully wiped off from the surface of the plate with an L-shaped coating rod. Then the suspension is transferred into a sterile tube. After shaking, let the tube stand for 5 to 10 minutes. Count the number of spores in the upper suspension with a hemocytometer and check the purity. Adjust the inoculum concentration to 0.2-2.5×10^4 spores/mL. Inject 198 μL of diluted inoculum into each holes of the corresponding test plate using a multichannel pipette. Incubate at 35° C. for 48 hours. […] To facilitate scoring of the presence or absence of growth on the wall, a magnifying glass is used. The tested 96-well microplates were photographed and the optical density at 530 nm is read with an enzyme marker (Tecan Spark).

[2] = test system: Aspergillus fumigatus (ATCC MYA-4609/AF293/CBS 101355); test: Measurement of minimum inhibitory concentration (MIC), AF293; type: cell-based; details: CBS101355; Aspergillus fumigatus AF293, 35° C., 48 hours, RPMI1640; read-out: AF293: MIC
Procedure: New streaks are made with glycerol stock solution of the strains of Aspergillus fumigatus (ATCC MYA-4609/AF 293/CBS 101355) on Sabouraud's dextrose agar (SDA), incubate at 35° C. and a humidity of 40-70% for 72 hours. Other strains are processed as the same as AF293.
RPMI1640: one packet of RPMI1640 powder is dissolved in 1 L purified water and mixed well, add 0.165M MOPS, adjust the pH to 7.0, sterilize by filtration with 0.22 um membrane, and store at 4° C. for no more than 3 months.
Physiological saline: weigh 9 g of sodium chloride powder and dissolve in 1 L of purified water, and mixed well. Sterilize at 121° C. for 30 min, store at room temperature (RT) for no more than 1 week.
Dissolve the test compound and stock solution of one control compound with DMSO and obtain solutions at a concentration of 12.8 mg/mL
The maximum concentration of each compound is 0.8 mg/mL (e.g., 150 μL of dimethyl sulfoxide+10 uL of 12.8 mg/mL compound/control). Column 1 is filled with 40 μL of compound and columns 2 to 11 with 20 μL of dimethyl sulfoxide. Transfer 20 μL of compound from column 1 to column 2 to dilute the concentration. Repeat the above steps up to column 11 to give 2× serial dilutions.
2 μL of the above 2× serial dilutions are injected into each hole of the corresponding test plate using a multichannel pipette.
Drop 5 ml of saline on the Aspergillus fumigatus SDA plate. The spores were carefully wiped off from the surface of the plate with an L-shaped coating rod. Then the suspension is transferred into a sterile tube. After shaking, let the tube stand for 5 to 10 minutes. Count the number of spores in the upper suspension with a hemocytometer and check the purity. Adjust the inoculum concentration to 0.2-2.5×10^4 spores/mL.
Inject 198 μL of diluted inoculum into each holes of the corresponding test plate using a multichannel pipette.
Incubate at 35° C. for 48 hours.
To facilitate scoring of the presence or absence of growth on the wall, a magnifying glass is used. The tested 96-well microplates were photographed and the optical density at 530 nm is read with an enzyme marker (Tecan Spark).

[3] = Liver microsomal stability test, human; type: in vitro ADME; details: Human liver microsomes
Procedure: (§1) • 1: Add 10 μL of working solutions of test product or reference product and 80 μL of microsomal working solution (liver microsomal protein concentration of 0.5 mg/mL) to wells of TO, T5, T10, T20, T30, T60, and NCF60, and only microsomal working solution is added to the Blank60 wells. Then the samples of Blank60, T10, T20, T30 and T60, except for TO and NCF60, are placed in a water bath set at 37° C. and incubate for approximately 10 mins; • 2: Add 300 μL of termination solution (acetonitrile solution containing 200 ng/mL tolbutamide and 200 ng/mL labetalol) to Sample TO, followed by 10 ul of NADPH regeneration system working solution; • 3: After incubation of Blank60, T5, T10, T20, T30 and T60 on incubation plates, add 10 μL of NADPH regeneration system working solution to each sample well to start the reaction, and 10 uL of 100 mM potassium phosphate buffer is add to the NCF60 sample wells; • 4: After incubation for appropriate times (e.g., 5, 10, 20, 30 and 60 mins), 300 μL of termination solution is add to each sample well of test product and reference product on Blank60, T5, T10, T20, T30, T60 and NCF60 plates, respectively, to terminate the reaction. • 5: All sample plates are shaken well and centrifuged at 4000 rpm for 20 min, take 100 μL of the supernatant of the test product or reference product, dilute in 300 μL of pure water for LC-MS/MS analysis, respectively. • 6: Data analysis, T½ and CLint(mic) (μL/min/mg) values are calculated based on the first-order elimination kinetics, and the equations of first-order elimination kinetics are: […]

[4] = Liver microsomal stability test, mouse; type: in vitro ADME; details: Mouse liver microsomes
Procedure: as §1

[5] = Pharmacokinetic test in SD rats, single oral administration; type: in vivo; details: single oral administration 10 mg/kg, test compound mixed with F901318, plasma; for half-life: read-out: T½ (converted)
Procedure: Pharmacokinetic study is performed on SD rats receiving single oral administration of each test compound mixed with F901318 (10 mg/kg, 3 rats per group). Test compounds and F901318 are dissolved with […]+10% solutol+85% saline, vortexed for 1-2 mins and ultra-sonicated for 5-10 mins to form a colorless clear drug solution. The animals are fasted overnight before oral administration, and resumed feeding 4 hours after administration. After oral administration, pharmacokinetic samples are collected from orbital blood of SD rats at 0.083 h, 0.25 h, 0.5 h, 1 h, 2 h, 4 h, 6 h, 8 h, and 24 h, and three whole blood samples are collected at each time point in a volume of 0.2-0.3 mL. Blood samples are placed on ice immediately after collected, and the plasma is separated by centrifugation within 15 min (centrifugation conditions: 8000 rpm, 1 min, and at room temperature).
The collected plasma is stored at −20° C. prior to analysis. Transfer 20 μL of plasma sample into an 0.5 mL EP tube, add 200 μL of working internal standard solution (blank group is without internal standard, using the same volume of solvent instead), vortex and mix for 3 min centrifuge at 13500 rpm for 10 min, take 100 μL of supernatant and analyze with LC-MS/MS.

[6] = test system: Aspergillus fumigatus ATCCMYA-4690 (AF293); test: Survival rate experiment II of mouse bloodstream infection model with Aspergillus fumigatus; type: in vivo; details: immunosuppressed male CD-1 mouse
Procedure: Test Case 6: Survival Rate Experiment II of Mouse Bloodstream Infection Model with Aspergillus fumigatus • Animal for experiment: male CD-1 mouse, 6-8 weeks old, 10 animals per group. • Induction of immunosuppression: the day of infection is defined as day 0, and mouses are injected intraperitoneally with corresponding doses of cyclophosphamide on day −4 (150 mg/kg), day −1 (100 mg/kg), and day 2 (100 mg/kg), respectively. • Microbial pathogen: Aspergillus fumigatus ATCCMYA-4690 (AF293). • Collection conditions of inoculum: culture on SDA culture plates, incubate at 25° C. for at least 7 days, collect with PBS+0.1% Tween 20, and count microscopically; • Inoculation level, route and volume: 3.90E+05 CFU/mouse, tail vein injection, injection volume of 100 μL/mouse; • Treatment: Treatment is started 24 hours after infection, and test compounds are dissolved in PEG400 (0.3 mg/mL), […] The administrated mouses are observed for 8 hours.

[7] = 0.5 mg/mL protein, 37° C., NADPH
[8] = SD, rat, plasma, po, 10 mg/kg, read-out: AUC
[9] = SD, rat, plasma, po, 10 mg/kg, read-out: Cmax
[10] = SD, rat, plasma, po, 10 mg/kg, read-out: Tmax

Row | SMILES | ATCC 204305: MIC [1] [µg/mL] | MIC [2] [µg/mL] | CLint scaled [3, 7] [mL/min/kg] | half-life [3, 7] [min] | Remaining, (T = 60 min) [3] [%] | CLint scaled [4, 7] [mL/min/kg] | half-life [4, 7] [min] | Remaining, (T = 60 min) [4] [%] | AUC [5, 8] [ng·h/mL] | Cmax [5, 9] [ng/mL] | Tmax [5, 10] [h] | half-life ([5]; SD, rat, plasma, po, 10 mg/kg) [min] | further results
1 | Cc1cc(-c2ccccc2F)c(C(=O)C(=O)Nc2ccc3c(c2)COCC2CN(c4ncc(F)cn4)CCN32)n1C (stereo not drawn) [Example 39, 2-(3-(2-fluorophenyl)-1,5-dimethyl-1H-pyrrol-2-yl)-N-(3-(5-fluoropyrimidin-2-yl)-1,2,3,4,4a,5-hexahydro-7H-benzo[e]pyrazine[2,1-c] [1,4]oxazolin-9-yl)-2-oxoacetamide] | 0.03 | – | – | – | – | – | – | – | – | – | – | – | –
2 | Cc1cc(-c2ccccc2)c(C(=O)C(=O)Nc2ccc3c(c2)OCC2CN(c4ncc(C(F)(F)F)cn4)CCN32)n1C (stereo not drawn) [Example 9] | – | 0.06 (≈ 0.104 µM) | 52.9 | 23.6 | 16.5 | 81.1 | 30.7 | 24.0 | – | – | – | – | –
3 | Cc1cc(-c2ccccc2F)c(C(=O)C(=O)Nc2ccc3c(c2)C[C@H]2CN(c4ncc(F)cn4)CCN32)n1C [Example 38, (S)-2-(3-(2-fluorophenyl)-1,5-dimethyl-1H-pyrrol-2-yl)-N-(2-(5-fluoropyrimidin-2-yl)-1,2,3,4,10,10a-hexahydropyrazino[1,2-a]indol-8-yl)-2-oxyacetamide] | 0.008 | – | – | – | 25.3 | – | – | 24.5 | – | – | – | – | AUC [5]: 41566.714 ng·h/mL; Cmax [5]: 3053.085 ng/mL; Tmax [5]: 1.000 h; T½ [5]: 11.202 h; CLint [3, 7]: 40.7 mL/min/kg; T1/2 [3, 7]: 30.7 min; CLint [4, 7]: 85.1 mL/min/kg; T1/2 [4, 7]: 29.3 min; day 7 survival rate ([6]; 3 mg/kg (bid) orally for 6 days, started 24 hours after infection): 50%; survival time of mouses ([6]; oral, bid): prolong the survival time
4 | Cc1cc(-c2ccccc2)c(C(=O)C(=O)Nc2ccc3c(c2)CC2CN(c4ncc(F)cn4)CCN32)n1C (stereo not drawn) [Example 1, 2-(1,5-dimethyl-3-phenyl-1H-pyrrol-2-yl)-N-(2-(5-fluoropyrimidin-2-yl)-1,2,3,4,10,10a-hexahydropyrazino[1,2-a]indol-8-yl)-2-oxoacetamide] | – | 0.03 (≈ 0.0588 µM) | 32.6 | 38.3 | 35.7 | 65.2 | 38.3 | 34.4 | 48300 | 3860 | 2.33 | 389 | –
5 | Cc1cc(-c2ccccc2F)c(C(=O)C(=O)Nc2cnc3c(c2)OCC2CN(c4ncc(F)cn4)CCN32)n1C (stereo not drawn) [Example 40] | 0.06 | – | – | – | – | – | – | – | – | – | – | – | –
6 | Cc1cc(-c2ccccc2F)c(C(=O)C(=O)Nc2ccc3c(c2)OC[C@H]2CN(c4ncc(F)cn4)CCN32)n1C [Example 35, (R)-2-(3-(2-fluorophenyl)-1,5-dimethyl-1H-pyrrol-2-yl)-N-(3-(5-fluoropyrimidin-2-yl)-1,2,3,4,4a, 5-hexahydrobenzo [b]pyrazino[1,2-d] [1,4]oxazin-8-yl)-2-oxoacetamide] | – | 0.008 (≈ 0.0147 µM) | – | – | – | – | – | – | 12800 | 1520 | 0.833 | 297 | MIC ([1]; ATCC204305): 0.016 µg/mL (≈ 0.0294 µM)
